This note sets out measurements from US8987256B2, “Oxo-heterocyclic substituted carboxylic acid derivatives and the use thereof” (Bayer Intellectual Property GmbH, priority 2008, dated 2015).

Assay [1] concerns the target T1, recombinant guanylate cyclase reporter cell line (Rattus norvegicus, UniProt P20595).
T1 construct: expressed in transfected cells; host or cells: CHO reporter cell line
T1 sequence (P20595 1-619): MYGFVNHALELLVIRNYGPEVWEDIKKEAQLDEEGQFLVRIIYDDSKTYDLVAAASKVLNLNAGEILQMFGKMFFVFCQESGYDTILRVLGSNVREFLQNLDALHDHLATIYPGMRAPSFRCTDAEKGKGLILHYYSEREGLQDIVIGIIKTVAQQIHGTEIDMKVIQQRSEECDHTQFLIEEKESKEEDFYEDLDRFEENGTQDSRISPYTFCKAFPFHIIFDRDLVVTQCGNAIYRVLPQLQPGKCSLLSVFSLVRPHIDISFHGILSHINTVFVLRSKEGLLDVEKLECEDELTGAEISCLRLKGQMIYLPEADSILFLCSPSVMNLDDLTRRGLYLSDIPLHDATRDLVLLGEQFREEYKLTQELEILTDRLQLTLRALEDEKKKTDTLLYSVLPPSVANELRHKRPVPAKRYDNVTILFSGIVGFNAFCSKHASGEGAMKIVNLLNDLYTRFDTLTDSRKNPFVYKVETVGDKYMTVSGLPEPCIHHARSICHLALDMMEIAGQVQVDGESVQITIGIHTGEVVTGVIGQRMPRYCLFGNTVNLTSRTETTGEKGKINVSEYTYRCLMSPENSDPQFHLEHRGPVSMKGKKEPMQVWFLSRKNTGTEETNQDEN
T1 sequence (P19686 1-690 partner): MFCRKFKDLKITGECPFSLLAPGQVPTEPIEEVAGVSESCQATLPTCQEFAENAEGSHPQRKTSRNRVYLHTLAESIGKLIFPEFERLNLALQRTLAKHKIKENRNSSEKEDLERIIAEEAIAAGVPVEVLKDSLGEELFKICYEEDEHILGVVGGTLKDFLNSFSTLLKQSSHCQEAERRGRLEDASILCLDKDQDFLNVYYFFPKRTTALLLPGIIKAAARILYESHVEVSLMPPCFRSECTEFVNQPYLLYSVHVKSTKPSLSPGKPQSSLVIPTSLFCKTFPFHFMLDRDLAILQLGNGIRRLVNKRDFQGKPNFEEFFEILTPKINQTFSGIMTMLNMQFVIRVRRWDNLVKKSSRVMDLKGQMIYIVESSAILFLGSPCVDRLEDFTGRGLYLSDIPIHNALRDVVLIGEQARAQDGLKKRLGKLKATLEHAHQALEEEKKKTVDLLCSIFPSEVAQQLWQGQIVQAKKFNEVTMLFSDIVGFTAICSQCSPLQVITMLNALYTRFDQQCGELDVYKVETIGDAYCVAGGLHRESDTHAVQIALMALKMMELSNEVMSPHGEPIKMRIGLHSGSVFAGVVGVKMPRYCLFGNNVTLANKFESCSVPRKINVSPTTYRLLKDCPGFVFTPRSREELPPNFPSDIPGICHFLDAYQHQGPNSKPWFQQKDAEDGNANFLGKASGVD
The assay can be described thus: sGC-activating activity in the CHO reporter cell in vitro. It counts as cell-based. On the procedure: The cellular action of the compounds according to the invention is determined at a recombinant guanylate cyclase reporter cell line, as described in F. Wunder et al., Anal. Biochem. 339, 104-112 (2005).

For the next assay, the system named is saphenous artery rings. The assay can be described thus: Vasorelaxant effect in vitro (phenylephrine-contracted artery rings). The arrangement: species or system Rabbits. Conditions: concentration reducing phenylephrine-induced contraction by 50%. Here is the method: Rabbits are anesthetized and sacrificed by intravenous injection of thiopental sodium (about 50 mg/kg) and exsanguinated. The saphenous artery is removed and divided into rings 3 mm wide. The rings are mounted singly on in each case a pair of triangular hooks open at the end and made of 0.3 mm-thick special wire (Remanium®). Each ring is placed under an initial tension in 5 ml organ baths with Krebs-Henseleit solution which is at 37° C., is gassed with carbogen and has the following composition: NaCl 119 mM; KCl 4.8 mM; CaCl2×2H2O 1 mM; MgSO4×7H2O 1.4 mM; KH2PO4 1.2 mM; NaHCO3 25 mM; glucose 10 mM; bovine serum albumin 0.001%. The force of contraction is detected with Statham UC2 cells, amplified and digitized via A/D converters (DAS-1802 HC, Keithley Instruments, Munich) and recorded in parallel on chart recorders. Contractions are induced by addition of phenylephrine.
After several (generally 4) control cycles, the substance to be investigated is added in each further run in increasing dosage, and the level of the contraction achieved under the influence of the test substance is compared with the level of the contraction reached in the last preceding run. The concentration necessary to reduce the contraction reached in the preceding control by 50% is calculated from this (IC50). The standard application volume is 5 μl. The proportion of DMSO in the bath solution corresponds to 0.1%.

The target of assay [2] is T2, soluble guanylate cyclase (sGC) (Rattus norvegicus, UniProt P20595).
T2 construct: made in house; host or cells: baculovirus/Sf9 insect cells
T2 sequence (P20595 1-619): T1 sequence (P20595 1-619)
T2 sequence (P19686 1-690 partner): T1 sequence (P19686 1-690 partner)
The assay can be described thus: Activating action at the sGC enzyme in vitro (PPi detection, luciferase). The format is biochemical. The following applies: for EC50: read-out: EC50 (concentration at 50% of maximum efficacy), activating action at the sGC enzyme. Here is the method:
Soluble guanylate cyclase (sGC) converts on stimulation GTP into cGMP and pyrophosphate (PPi). PPi is detected with the aid of the assay described below. The signal produced in the assay increases as the reaction progresses and serves as a measure of the sGC enzyme activity under the given stimulation.
To carry out the assay, 29 μl of enzyme solution [0-10 nM soluble guanylate cyclase (prepared according to Honicka et al., J. Mol. Med. 77, 14-23 (1999)) in 50 mM TEA, 2 mM MgCl2, 0.1% BSA (fraction V), 0.005% Brij®, pH 7.5] are initially introduced into a microplate, and 1 μl of the substance to be tested (as a serially diluted solution in DMSO) is added. The mixture is incubated at room temperature for 10 min. Then 20 μl of detection mix [1.2 nM Firefly Luciferase (Photinus pyralis luciferase, Promega), 29 μM dehydroluciferin (prepared according to Bitler & McElroy, Arch. Biochem. Biophys. 72, 358 (1957)), 122 μM luciferin (Promega), 153 μM ATP (Sigma) and 0.4 mM DTT (Sigma) in 50 mM TEA, 2 mM MgCl2, 0.1% BSA (fraction V), 0.005% Brij®, pH 7.5] are added. The enzyme reaction is started by adding 20 μl of substrate solution [1.25 mM guanosine 5′-triphosphate (Sigma) in 50 mM TEA, 2 mM MgCl2, 0.1% BSA (fraction V), 0.005% Brij®, pH 7.5] and measured continuously in a luminometer. The extent of the stimulation by the substance to be tested can be determined relative to the signal of the unstimulated reaction.
The activation of heme-free guanylate cyclase is examined by addition of 25 μM of 1H-1,2,4-oxadiazolo[4,3-a]quinoxalin-1-one (ODQ) to the enzyme solution and subsequent incubation for 30 minutes and compared to the stimulation of the native enzyme.

As for `CC(C(C(=O)Nc1cc(CC2(C(=O)O)CC2)ccc1F)c1ccc(CN2N=C(c3ccccc3)OCC2=O)cc1)C(F)(F)F` (stereo not drawn) [Example 186, 1-{4-fluoro-3-[(4,4,4-trifluoro-3-methyl-2-{4-[(5-oxo-2-phenyl-5,6-dihydro-4H-1,3,4-oxadiazin-4-yl)methyl]phenyl}butanoyl)amino]benzyl}-cyclopropanecarboxylic acid], the “MEC (minimum effective concentration), sGC-activating activity in the CHO reporter cell” value (“MEC … in the CHO reporter cell” for short) in assay [1] is on record as 0.2 nM. For the same compound, the IC50 (commonly the concentration at which inhibition is half-maximal) in the assay with saphenous artery rings (Oryctolagus cuniculus) is 37 nM. Also, in assay [2], the “MEC (minimum effective concentration), activating action at the sGC enzyme” value (shortened to “MEC … at the sGC enzyme”) came out at 0.1 nM and the EC50 came out at 1.5 nM.

As to `CC(C(C(=O)Nc1cccc(CCC(=O)O)c1)c1ccc(CN2N=C(c3ccccc3)OCC2=O)cc1)C(F)(F)F` (single isomer, unassigned) [Example 192, 3-{3-[(4,4,4-Trifluoro-3-methyl-2-{4-[(5-oxo-2-phenyl-5,6-dihydro-4H-1,3,4-oxadiazin-4-yl)methyl]phenyl}butanoyl)amino]phenyl}propanoic acid], the “MEC … in the CHO reporter cell” value in assay [1] was 3 nM. The same compound returned an IC50 in the assay with saphenous artery rings (Oryctolagus cuniculus) of 356 nM. Further, in assay [2], the “MEC … at the sGC enzyme” value is 2.5 nM and the EC50 came out at 30 nM.

Consider `O=C(Nc1cc(F)cc(CC2(C(=O)O)CC2)c1)C(c1ccc(CN2N=C(c3ccccc3)OCC2=O)cc1)C1CCCC1` (single isomer, unassigned) [Example 237, 1-{3-[(Cyclopentyl{4-[(5-oxo-2-phenyl-5,6-dihydro-4H-1,3,4-oxadiazin-4-yl)methyl]phenyl}acetyl)amino]-5-fluorobenzyl}cyclopropanecarboxylic acid], for which the “MEC … in the CHO reporter cell” value in assay [1] was 1 nM. The IC50 in the assay on saphenous artery rings (Oryctolagus cuniculus) was 158 nM. Moreover, in assay [2], the “MEC … at the sGC enzyme” value is recorded as 0.9 nM and the EC50 is 21 nM.

Regarding `CC(C(C(=O)Nc1cccc(CC2(C(=O)O)CC2)c1)c1ccc(CN2N=C(c3ccccc3)OCC2=O)cc1)C(F)(F)F` (single isomer, unassigned) [Example 166, 1-{3-[(4,4,4-trifluoro-3-methyl-2-{4-[(5-oxo-2-phenyl-5,6-dihydro-4H-1,3,4-oxadiazin-4-yl)methyl]phenyl}-butanoyl)amino]benzyl}cyclopropanecarboxylic acid], the “MEC … in the CHO reporter cell” value in assay [1] is on record as 0.3 nM. This compound displayed an IC50 in the assay with saphenous artery rings of 4.9 nM. Further, in assay [2], the “MEC … at the sGC enzyme” value was determined as 0.4 nM and the EC50 was 2.4 nM.

For the compound `O=C(Nc1cccc(CC2(C(=O)O)CC2)c1)[C@H](c1ccc(CN2Cc3c(F)cccc3C2=O)cc1)C1CCCC1` [Example 214], the “MEC … in the CHO reporter cell” value in assay [1] was 0.1 nM. The compound further showed an IC50 in the assay with saphenous artery rings (Oryctolagus cuniculus) of 11 nM. Moreover, in assay [2], the “MEC … at the sGC enzyme” value came out at 0.4 nM and the EC50 was 19 nM.

`CCC(C)C(C(=O)Nc1cccc(CC(C)(C)C(=O)O)c1)c1ccc(CN2N=C(c3ccccc3)OCC2=O)cc1` (stereo not drawn) [Example 143, 2,2-dimethyl-3-{3-[(3-methyl-2-{4-[(5-oxo-2-phenyl-5,6-dihydro-4H-1,3,4-oxadiazin-4-yl)methyl]phenyl}-pentanoyl)amino]phenyl}propanoic acid]: the “MEC … in the CHO reporter cell” value in assay [1] is 3 nM. The compound further registered a concentration for half-maximal inhibition (IC50) with saphenous artery rings (Oryctolagus cuniculus) of 345 nM.

Take `CC(C(C(=O)Nc1cccc(CC2(C(=O)O)CC2)c1)c1ccc(CN2N=C(c3ccccc3)OCC2=O)cc1)C(F)(F)F` (single isomer, unassigned) [Example 164, 1-{3-[(4,4,4-trifluoro-3-methyl-2-{4-[(5-oxo-2-phenyl-5,6-dihydro-4H-1,3,4-oxadiazin-4-yl)methyl]phenyl}-butanoyl)amino]benzyl}cyclopropanecarboxylic acid]: in assay [1], the “MEC … in the CHO reporter cell” value was found to be 0.3 nM. Moreover, it took 26 nM to reach half-maximal inhibition in the assay with saphenous artery rings (IC50). In assay [2], the “MEC … at the sGC enzyme” value amounted to 0.5 nM and the EC50 is 6.1 nM.

Turning to `O=C(Nc1cccc(CC2(C(=O)O)CC2)c1)C(c1ccc(Cn2nc(-c3ccccc3)ccc2=O)cc1)C1CCCC1` (stereo not drawn) [Example 156, 1-{3-[(cyclopentyl{4-[(6-oxo-3-phenylpyridazin-1(6H)-yl)methyl]phenyl}acetyl)amino]benzyl}-cyclopropanecarboxylic acid], in assay [1], the “MEC … in the CHO reporter cell” value turned out to be 3 nM. Also, half-maximal inhibition with saphenous artery rings (Oryctolagus cuniculus) (IC50) was put at 45 nM. Besides, in assay [2], the “MEC … at the sGC enzyme” value turned out to be 0.2 nM and the EC50 worked out at 5.4 nM.

Take `CC(C)(Cc1cccc(NC(=O)C(c2ccc(Cn3nc(-c4ccccc4)ccc3=O)cc2)C2CCCC2)c1)C(=O)O` (single isomer, unassigned) [Example 138, 3-{3-[(cyclopentyl{4-[(6-oxo-3-phenylpyridazin-1(6H)-yl)methyl]phenyl}acetyl)amino]phenyl}-2,2-dimethylpropanoic acid]: the “MEC … in the CHO reporter cell” value in assay [1] is on record as 10 nM. In addition, the IC50 in the assay with saphenous artery rings (Oryctolagus cuniculus) amounted to 52 nM. Besides, in assay [2], the “MEC … at the sGC enzyme” value amounted to 5.1 nM and the EC50 came out at 330 nM.

On to `CC(C(C(=O)Nc1cc(CCC(=O)O)ccc1F)c1ccc(CN2N=C(c3ccccc3)OCC2=O)cc1)C(F)(F)F` (stereo not drawn) [Example 185, 3-{4-fluoro-3-[(4,4,4-trifluoro-3-methyl-2-{4-[(5-oxo-2-phenyl-5,6-dihydro-4H-1,3,4-oxadiazin-4-yl)methyl]-phenyl}butanoyl)amino]phenyl}propanoic acid], for which the “MEC … in the CHO reporter cell” value in assay [1] turned out to be 0.3 nM. In addition, the IC50 in the assay with saphenous artery rings (Oryctolagus cuniculus) worked out at 64 nM.
